This note sets out measurements from ChEMBL document CHEMBL4265894, “Developing potential Helicobacter pylori urease inhibitors from novel oxoindoline derivatives: Synthesis, biological evaluation and in silico study” (Bioorg Med Chem Lett, 2018).

One data set addresses Urease (Helicobacter pylori, UniProt Q0PXQ5). Put plainly: Inhibition of Helicobacter pylori urease after 50 mins by indophenol method.
The subject of another data set is Helicobacter pylori. Put plainly: Antibacterial activity against Helicobacter pylori after 48 hrs. In kind it is functional.
The nature of data set [1]: Cytotoxicity against HEK293T cells after 24 hrs by MTT assay. The settings on record: human. In kind it is cell-based, HEK-293T. On the technique in general: Tetrazolium assays rely on reduction of a dye to a coloured formazan, in cell work by metabolically active cells.
Data set [2] is described as follows: Cytotoxicity against human LO2 cells after 24 hrs by MTT assay. It is filed as cell-based, L02.

Values after ≈ are worked out from the molar mass of the structure shown. Some results are limits rather than exact numbers.

Sequence of Urease (Q0PXQ5 whole entry): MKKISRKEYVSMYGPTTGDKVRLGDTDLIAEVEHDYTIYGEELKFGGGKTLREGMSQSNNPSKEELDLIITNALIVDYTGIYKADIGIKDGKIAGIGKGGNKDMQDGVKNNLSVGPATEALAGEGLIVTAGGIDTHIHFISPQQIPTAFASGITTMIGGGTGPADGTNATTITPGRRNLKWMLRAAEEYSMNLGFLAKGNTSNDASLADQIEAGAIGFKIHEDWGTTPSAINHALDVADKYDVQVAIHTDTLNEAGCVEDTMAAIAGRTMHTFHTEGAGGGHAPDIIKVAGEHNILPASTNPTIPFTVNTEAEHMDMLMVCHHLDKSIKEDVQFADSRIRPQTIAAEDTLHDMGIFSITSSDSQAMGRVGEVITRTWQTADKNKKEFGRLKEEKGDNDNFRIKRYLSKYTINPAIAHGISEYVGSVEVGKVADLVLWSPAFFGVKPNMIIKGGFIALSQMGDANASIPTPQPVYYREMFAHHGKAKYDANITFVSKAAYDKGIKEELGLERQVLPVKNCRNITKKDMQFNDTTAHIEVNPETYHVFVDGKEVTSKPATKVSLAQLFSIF

`COc1ccc(C(=O)N/N=C2/C(=O)N(CC=C(C)C)c3ccccc32)cc1F` came in with an IC50 against Urease of 3.82 µM. For the same molecule, 3.94 µM (≈ 1.5 µg/mL) was the least that counted as inhibitory against Helicobacter pylori (MIC). Also, the concentration for 50% growth inhibition (GI50) at 24 h is 169 µM in data set [1] and above 200 µM in data set [2].

As to `CC(C)=CCN1C(=O)/C(=N/NC(=O)c2cc(C)cc(C)c2)c2ccccc21`, on Urease, inhibition was half-maximal at 4.38 µM (IC50). In addition, the MIC against Helicobacter pylori worked out at 6.75 µM (≈ 2.44 µg/mL).

As for `CC(C)=CCN1C(=O)/C(=N/NC(=O)c2cccc(Cl)c2)c2ccccc21`, the IC50 at Urease turned out to be 38.1 µM. The same molecule yielded an MIC in the data set with Helicobacter pylori of 72.5 µM (≈ 26.7 µg/mL).

The molecule `CC(C)=CCN1C(=O)/C(=N/NC(=O)c2ccc(C(C)C)cc2)c2ccccc21` showed an IC50 against Urease of 14.9 µM. Moreover, in the data set with Helicobacter pylori, inhibition of growth (MIC) required 27.5 µM (≈ 10.3 µg/mL).

The molecule `CC(C)=CCN1C(=O)/C(=N/NC(=O)c2ccc(Br)cc2)c2ccccc21` had a half-maximal inhibitory concentration (IC50) on Urease of 83.9 µM. This molecule also registered an MIC against Helicobacter pylori of 137 µM (≈ 56.5 µg/mL).

For `COc1cccc(C(=O)N/N=C2/C(=O)N(CC=C(C)C)c3ccccc32)c1`, it took 8.21 µM to reach half-maximal inhibition against Urease (IC50). This molecule also showed an MIC with Helicobacter pylori of 15.2 µM (≈ 5.52 µg/mL).

Consider `CC(C)=CCN1C(=O)/C(=N/NC(=O)c2ccc(C(F)(F)F)cc2)c2ccccc21`, for which the IC50 against Urease turned out to be 44.1 µM. In the data set with Helicobacter pylori, this molecule had a minimum inhibitory concentration (MIC) of 83.9 µM (≈ 33.7 µg/mL).

Regarding `CC(C)=CCN1C(=O)/C(=N/Nc2ccccc2)c2ccccc21`, the IC50 on Urease is above 300 µM. This molecule also returned an MIC in the data set with Helicobacter pylori above 200 µM. Moreover, the GI50 at 24 h in data set [1] and in data set [2] was above 200 µM each time.

As to `COc1cc(OC)cc(C(=O)N/N=C2/C(=O)N(CC=C(C)C)c3ccccc32)c1`, at Urease, inhibition was half-maximal at 1.35 µM (IC50). In the data set with Helicobacter pylori, this molecule had an MIC of 1.96 µM (≈ 0.771 µg/mL). Moreover, the GI50 at 24 h worked out at 176 µM in data set [1] and 188 µM in data set [2].

`CC(C)=CCN1C(=O)/C(=N/NC(=O)c2ccc(F)cc2)c2ccccc21` yielded an IC50 on Urease of 154 µM. The molecule further displayed an MIC in the data set with Helicobacter pylori above 200 µM. Besides, the 50% growth inhibitory concentration (GI50) at 24 h in data set [1] was 195 µM; in data set [2], above 200 µM.

As for `COc1ccc(C(=O)N/N=C2/C(=O)N(CC=C(C)C)c3ccccc32)cc1`, the IC50 against Urease worked out at 6.99 µM. The molecule also registered an MIC against Helicobacter pylori of 10.3 µM (≈ 3.74 µg/mL).

At Urease, `CC(C)=CCN1C(=O)/C(=N/NC(=O)c2ccc(C)cc2)c2ccccc21` returned an IC50 of 29.9 µM. This molecule also gave an MIC against Helicobacter pylori of 58.1 µM (≈ 20.2 µg/mL).

Consider `COc1ccccc1C(=O)N/N=C1/C(=O)N(CC=C(C)C)c2ccccc21`, for which half-maximal inhibition on Urease (IC50) required 11.7 µM. This molecule had an MIC in the data set with Helicobacter pylori of 19.5 µM (≈ 7.09 µg/mL).

Consider `CC(C)=CCN1C(=O)/C(=N/NC(=O)c2cccc(Br)c2)c2ccccc21`, for which the IC50 on Urease amounted to 27.6 µM. For the same molecule, in the data set on Helicobacter pylori, 50.5 µM (≈ 20.8 µg/mL) was the least that counted as inhibitory (MIC).

On to `CC(C)=CCN1C(=O)/C(=N/NC(=O)c2ccc(C(C)(C)C)cc2)c2ccccc21`, for which the IC50 against Urease was 19.5 µM. The molecule further gave a minimum inhibitory concentration (MIC) in the data set with Helicobacter pylori of 30.8 µM (≈ 12 µg/mL).

Regarding `CC(C)=CCN1C(=O)/C(=N/NC(=O)c2ccccc2)c2ccccc21`, on Urease, the IC50 was 129 µM. In the data set on Helicobacter pylori, this molecule displayed an MIC of 171 µM (≈ 57 µg/mL).

Molecule `CC(C)=CCN1C(=O)/C(=N/NC(=O)c2cccc(C(F)(F)F)c2)c2ccccc21` registered an IC50 against Urease of 65.8 µM. Also, in the data set on Helicobacter pylori, inhibition of growth (MIC) required 108 µM (≈ 43.3 µg/mL).

With `COc1ccc(C(=O)N/N=C2/C(=O)N(CC=C(C)C)c3ccccc32)cc1OC`, inhibition against Urease was half-maximal at 0.71 µM (IC50). Moreover, the MIC in the data set with Helicobacter pylori was 0.48 µM (≈ 0.189 µg/mL). Moreover, the GI50 at 24 h came out at 184 µM in data set [1] and 178 µM in data set [2].

Consider `CC(C)=CCN1C(=O)/C(=N/NC(=O)c2ccc(Oc3ccccc3)cc2)c2ccccc21`, for which the IC50 at Urease was 22.7 µM. This molecule also registered an MIC against Helicobacter pylori of 41.8 µM (≈ 17.8 µg/mL).

On to `CC(C)=CCN1C(=O)/C(=N/NC(=O)c2ccc(Cl)cc2)c2ccccc21`, for which the IC50 against Urease was determined as 143 µM. The molecule further returned an MIC in the data set on Helicobacter pylori of 185 µM (≈ 68 µg/mL). Besides, the 50% growth inhibitory concentration (GI50) at 24 h in data set [1] and in data set [2] was above 200 µM in each case.

The molecule `CC(=O)NO` [ACETOHYDROXAMIC ACID] had an IC50 on Urease of 17.2 µM.

As to `Cc1ncc([N+](=O)[O-])n1CCO` [METRONIDAZOLE], it took 31.3 µM (≈ 5.36 µg/mL) to inhibit growth in the data set on Helicobacter pylori (MIC).

The IC50 is the concentration at which inhibition is half-maximal. What is called MIC is the lowest concentration that inhibits growth of the organism. The term GI50 denotes the concentration at which growth is held to half of that of the control. Lower therefore signals more potent growth inhibition.
